Values quoted from earlier work as cited in patent US12239727B2, “Compositions for use in the treatment of photosensitivity” (RepoCeuticals A/S, priority 2018, dated 2025).

Conditions: room temperature, solvent DMSO

Structure (SMILES): COc1ccc2[nH]cc(CCNC(C)=O)c2c1 [melatonin, N-acetyl-5-methoxytryptamine]
- solubility in DMSO: ≥ 232 mg/mL
